Literature values, collected in PMC7997369, “Assessment of the Multifunctional Behavior of Lupin Peptide P7 and Its Metabolite Using an Integrated Strategy” (Journal of Agricultural and Food Chemistry, 2020).
No end group written: not given here.

Molecular target: T1, HMGCoAR (catalytic domain) (Homo sapiens, UniProt P04035)
T1 construct: finally the HMGCoAR (catalytic domain) (2 µL); purchased Sigma
T1 sequence (P04035 426-888 limits assumed): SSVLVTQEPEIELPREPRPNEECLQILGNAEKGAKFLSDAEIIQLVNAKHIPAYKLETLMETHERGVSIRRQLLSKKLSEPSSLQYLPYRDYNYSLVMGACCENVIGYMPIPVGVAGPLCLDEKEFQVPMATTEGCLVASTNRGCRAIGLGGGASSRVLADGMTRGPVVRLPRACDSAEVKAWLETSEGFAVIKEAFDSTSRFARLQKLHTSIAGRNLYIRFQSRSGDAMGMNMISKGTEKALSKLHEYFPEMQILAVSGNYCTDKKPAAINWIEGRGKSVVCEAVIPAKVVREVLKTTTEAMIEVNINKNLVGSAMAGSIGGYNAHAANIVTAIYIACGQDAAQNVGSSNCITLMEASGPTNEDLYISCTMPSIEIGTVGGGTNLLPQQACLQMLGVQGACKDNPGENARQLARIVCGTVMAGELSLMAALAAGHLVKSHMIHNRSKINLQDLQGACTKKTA
Conditions: read-out: IC50, in vitro HMGCoAR activity; cited from earlier work
Excerpt: To express their activity in vivo, peptides masked within a protein sequence need not only be released by specific and selective proteases but may also be absorbed at the intestinal level and enter blood circulation to reach the target organs.[2] Differentiated Caco-2 cells still represent the best available model system for intestinal transport studies.[3]−[5] […] To function as a competitive inhibitor of HMGCoAR, a peptide should mimic the hydroxymethylglutaryl moiety. To achieve this goal, the conformation and side chain groups play a more important role than the total hydrophobicity. Moreover, the correlation of the inhibitory activity with the peptide length has not yet been established, while it has been confirmed that a ...

LTFPGSAED [P7]
IC50: 68.4 µM
